Experimental data from patent publication US20190254276A1 (priority 2010, published 2019).
Read-outs that look alike come from different tables or passages of the source.

Key:
BVDV = conditions: 45% PG eluate; for Titre: Standard titration; for Reduction Factor: vs T0
TGEV = conditions: 45% PG eluate; for Reduction Factor: vs T0

With propane-1,2-diol [PG] the “Clearance Factor” value (BVDV; Run 1, T = 0 Load Sample) was 0.43 log, the “Clearance Factor” value (BVDV; Run 1, T = 5 min) was 165 log and the “Log10TICD50 (total viral load)” value (BVDV; Run 1, T = 5 min) was 4.53 Log10TICD50. The Titre (BVDV; Run 1, T = 5 min) was 18 log10TCID50/ml, the “Reduction Factor” value (BVDV; Run 1, T = 5 min) was 122 log and the “Clearance Factor” value (BVDV; Run 1, T = 15 min) was 13 log. The “Log10TICD50 (total viral load)” value (BVDV; Run 1, T = 15 min) was 6.50 Log10TICD50, the “Reduction Factor” value (BVDV; Run 1, T = 15 min) was 0.97 log and the “Clearance Factor” value (BVDV; Run 1, T = 60 min) was 13 log. The “Log10TICD50 (total viral load)” value (BVDV; Run 1, T = 60 min) was 4.90 Log10TICD50, the “Reduction Factor” value (BVDV; Run 1, T = 60 min) was 0.97 log and the “Clearance Factor” value (BVDV; Run 1, T = 180 min) was 13 log. For the same substance, the “Log10TICD50 (total viral load)” value (BVDV; Run 1, T = 180 min) was 4.58 Log10TICD50, the “Reduction Factor” value (BVDV; Run 1, T = 180 min) was 0.97 log and the “Clearance Factor” value (BVDV; Run 2, T = 0 Load Sample) was 0.44 log. For the same substance, the “Log10TICD50 (total viral load)” value (BVDV; Run 2, T = 0 Load Sample) was 5.78 Log10TICD50, the Titre (BVDV; Run 2, T = 25) was 132 log10TCID50/ml and the “Reduction Factor” value (BVDV; Run 2, T = 25) was 171 log. For the same substance, the “Clearance Factor” value (BVDV; Run 2, T = 5 min) was 188 log, the Titre (BVDV; Run 2, T = 5 min) was 159 log10TCID50/ml and the “Reduction Factor” value (BVDV; Run 2, T = 5 min) was 144 log. The “Clearance Factor” value (BVDV; Run 2, T = 60 min) was 168 log, the Titre (BVDV; Run 2, T = 60 min) was 189 log10TCID50/ml and the “Reduction Factor” value (BVDV; Run 2, T = 60 min) was 144 log. The “Clearance Factor” value (TGEV; Run 1, T = 0 Load Sample) was 0.07 log, the Titre (TGEV; Run 1, T = 0 Load Sample, Standard titration) was 5.12 log10 TCID50/ml and the “Clearance Factor” value (TGEV; Run 1, T = 5 min) was 124 log. For the same substance, the “Log10TICD50 (total viral load)” value (TGEV; Run 1, T = 5 min) was 5.21 Log10TICD50, the Titre (TGEV; Run 1, T = 5 min, Standard titration) was 3.95 log10 TCID50/ml and the “Reduction Factor” value (TGEV; Run 1, T = 5 min) was 1.0 log. The Titre (TGEV; Run 1, T = 15 min, Standard titration) was 2.78 log10 TCID50/ml, the Titre (TGEV; Run 1, T = 60 min, Standard titration) was 132 log10 TCID50/ml and the “Reduction Factor” value (TGEV; Run 1, T = 60 min) was 3.0 log. The “Clearance Factor” value (TGEV; Run 1, T = 180 min) was 4.38 log, the “Log10TICD50 (total viral load)” value (TGEV; Run 1, T = 180 min) was 3.08 Log10TICD50 and the Titre (TGEV; Run 1, T = 180 min, Standard titration) was 0.8 log10 TCID50/ml. The Titre (TGEV; Run 1, T = 360 min, Standard titration) was under 0.8 log10 TCID50/ml, the “Clearance Factor” value (TGEV; Run 2, T = 0 Load Sample) was 0.08 log and the Titre (TGEV; Run 2, T = 0 Load Sample, Standard titration) was 5.28 log10 TCID50/ml. For the same substance, the Titre (TGEV; Run 2, T = 5 min, Standard titration) was 4.26 log10 TCID50/ml, the “Reduction Factor” value (TGEV; Run 2, T = 5 min) was 1 log and the “Log10TICD50 (total viral load)” value (TGEV; Run 2, T = 15 min) was 5.40 Log10TICD50. For the same substance, the Titre (TGEV; Run 2, T = 15 min, Standard titration) was 3.2 log10 TCID50/ml, the “Reduction Factor” value (TGEV; Run 2, T = 15 min) was 8.05 log and the “Clearance Factor” value (TGEV; Run 2, T = 60 min) was 4.50 log. For the same substance, the Titre (TGEV; Run 2, T = 60 min, Standard titration) was 0.8 log10 TCID50/ml, the “Reduction Factor” value (TGEV; Run 2, T = 60 min) was 4.45 log and the Titre (TGEV; Run 2, T = 180 min, 1 LVP (96 wells)) was −0.12 log10 TCID50/ml. The “Reduction Factor” value (TGEV; Run 2, T = 180 min, LVP) was 5.4 log, the Titre (TGEV; Run 2, T = 360 min, 1 LVP (96 wells)) was under −0.12 log10 TCID50/ml and the “Reduction Factor” value (TGEV; Run 2, T = 360 min, LVP) was over 5.40 log.
